Patent US20020049173A1, “Alteration of cellular behavior by antisense modulation of mRNA processing” (priority 1999, published 2002)
In the oligonucleotide strings, read from the 5' end, every base follows the letter of its sugar. An asterisk marks phosphorothioate; unmarked linkages are phosphodiester. Other units and linkages are bracketed, terminal groups are in braces. A string of capitals states the bases alone. e = 2'-O-(2-methoxyethyl) (MOE); [5mC] = 5-methylcytosine

How the values were obtained:
[1] = system: Human IL-5 receptorα membrane form mRNA; experiment: Human IL-5 receptorα membrane form mRNA expression (18 hr); format: cell-based; parameters: % INHIB'N, human IL-5 receptorα membrane form mRNA / % of CONTROL, human IL-5 receptorα membrane form mRNA: concentration or dose not given beside the values
From the text: mRNA transcripts encoding the membrane form of the human IL-5 receptorα contain exons 1-10 and 12-14. Exon 11 is spliced out. It is, therefore, possible to target sequences in exons 1-10 which are common to both soluble and membrane forms of the receptor, or to selectively target sequences only present in the membrane form (exons 12-14). Oligonucleotides were also designed to target various intron/exon boundaries downstream of exon 11, with the intention of preventing successful splicing out of exon 11 and thus redirecting splice products away from the membrane form and in favor of the soluble form of IL-5 receptorα.
(§1) A series of oligonucleotides were designed to target various splice sites or (intron-exon boundaries) in the IL-5 receptor mRNA.

[2] = system: Human IL-5 receptorα; experiment: Human IL-5 receptorα protein expression on the cell surface (36 hr), TF-1 cells; format: cell-based; parameters: % INHIB, human IL-5 receptorα protein on the cell surface / % of CONTROL, human IL-5 receptorα protein on the cell surface: concentration or dose not given beside the values
From the text: as §1
ISIS 16746, 16748, 16755 and 16758 inhibited human IL-5 receptorα protein by over 50% in this assay and are therefore preferred. ISIS 16758 and 16755 were chosen for further study.

[3] = system: TF-1 cells; experiment: Apoptosis induction in TF-1 cells, Annexin-V staining; format: cell-based, human; details: 48 hours, IL-5 0.5 ng/ml
Description: 1×10^6 TF-1 cells cultured in IL-5 (0.5 ng/ml) were collected 48 hours following oligonucleotide treatment (transfection was by electroporation as described in previous examples) and phosphatidylserine expression was detected as a measure of apoptosis using the Annexin-V staining kit (Clontech, Palo Alto, Calif.) according to the manufacturer's instructions. Briefly, cells were resuspended in 0.2 ml of staining buffer (10 mM Hepes, pH 7.4, 140 mM NaCl, 5 mM CaCl2) and […] of propidium iodide (50 μg/ml) and 5 μl of Annexin V reagent were added at 4° C. for 10 minutes. The samples were diluted with FacsFlow (Becton Dickinson, Franklin Lakes N.J.) buffer and analyzed on a Becton Dickinson FACScan.

[4] = system: TF-1 cells; experiment: IL-5-induced TF-1 cell proliferation, [3H]-thymidine incorporation; format: cell-based, human; details: for % of control thymidine incorporation: compared to untreated controls
Description: 2.5×10^4 TF-1 cells were incubated in 96-well plates in 200 μl complete RPMI in the absence of IL-5 for 16 hours following electroporation. IL-5 (0.5 ng/ml) was added and the cultures were pulsed with 1 μCi of [^3H]-thymidine for the last 8 hours of a 48-hour culture period. The cells were harvested on glass fiber filters and analyzed for thymidine incorporation (proportional to cell proliferation) by liquid scintillation counting.
Results are compared to thymidine incorporation in untreated controls.

[5] = system: human bcl-xs mRNA; experiment: bcl-xs mRNA in A549 cells, RIBOQUANT RNase protection; format: cell-based; details: 200 nM oligonucleotide (Table 15)
From the text: (§2) In accordance with the present invention, a series of oligonucleotides were designed to target different regions of human bcl-x RNA, using published sequences (Boise, L. H., et al., 1993, Cell 74, 597-608; Genbank Accession No. L20121, locus name “HSBCLXL,” incorporated herein as SEQ ID NO: 39). Antisense oligonucleotides were designed to target areas of exon 1 and exon 2 of human bcl-x, particularly around the exon 1/exon 2 splice site and in sequence regions present in bcl-xl but not in bcl-xs. All backbone linkages are phosphorothioates; All 2′MOE cytosines are 5-methylcytosines.
(§3) Oligonucleotides were evaluated for their respective effects on bcl-xs and bcl-xl3 mRNA levels in A549 cells along with total bcl-x mRNA levels, using the RIBOQUANT™ RNase protection kit (Pharmingen, San Diego Calif.). All assays were performed according to manufacturer's protocols.
(§4) A “walk” was done in this region with 20mer 2′-MOE phosphorothioate oligonucleotides targeted to sequences whose 5′ ends were 24, 26, 29, 31, 33, 37, 39, 41, 43, 44, 45 and 47 bases upstream of the splice site. These oligonucleotides were screened as before at a dose of 200 nM oligonucleotide for effect on short and long bcl-x transcripts.

[6] = system: human bcl-xl mRNA; experiment: bcl-xl mRNA in A549 cells, RIBOQUANT RNase protection; format: cell-based; details: 200 nM oligonucleotide (Table 15)
From the text: as §2, §3, §4

[7] = system: human bcl-x mRNA; experiment: Total bcl-x mRNA and bcl-xs/bcl-xl ratio in A549 cells, RNase protection; format: cell-based; details: for bcl-xs/bcl-xl: 200 nM oligonucleotide (Table 15); for ratio of bcl-xs/bcl-xl: Oligo Concentration 200 (unit not given)
From the text: as §2, §3, §4

[8] = system: human bcl-x mRNA; experiment: as above; format: cell-based
[9] = system: E-selectin mRNA (Type III polyadenylation signal and site); experiment: E-selectin transcript forms by Northern blot in TNF-α-induced HUVEC; format: cell-based, human; details: increasing oligonucleotide dose, TNF-α 2 hours
Description: (§5) HUVEC (Clonetics, San Diego, Calif.) were cultivated in endothelial basal media supplemented with 10% fetal bovine serum. Cells were treated with oligonucleotides as described previously (Chiang, 1991, J. Biol. Chem. 27:18162-18171; Vickers, 2000, Nucleic Acids Res. 28:1340-1347). Briefly, cells were incubated with a mixture of Lipofectin (Gibco BRL, Gaithersburg, Md.) and oligonucleotide for 4 hours. Cells were incubated for 2-24 hours, then treated with 5 ng/ml TNF-α for 2-3 hours to induce expression of E-selectin. Cells were then washed extensively with phosphate buffered saline (PBS), fresh complete media was added and cells were incubated at 37° C. until harvested.
(§6) Total RNA was harvested from HUVEC at various times following TNF-α induction using a ToTALLY RNA kit (Ambion) according to the manufacturer's protocol). For Northern blots, RNA was separated on a 1.2% agarose gel containing 1.1% formaldehyde, then transferred to nylon membranes. Blots were hybridized with [^32P]-dCTP random prime labeled cDNA probes specific for E-selectin or […] (G3PDH) for 2 hours in Rapid-hyb solution (Amersham). Blots were washed with 2×SSC containing 0.1% SDS at room temperature, followed by 0.1×SSC containing 0.1% SDS at 60° C. Quantitation of RNA expression was performed using a Molecular Dynamics PhosphorImager. Anchored reverse transcriptase polymerase chain reaction (RT/PCR) was performed essentially as described by Chu et al. (supra.).
HUVEC were treated with 2′-O-methoxyethyl (MOE)/phosphorothioate antisense oligonucleotides directed to the Type III polyadenylation signal and site (Table 1A) as described above. After about 24 hours, cells were treated with TNF-α to induce E-selectin expression. Cells were harvested after 2 hours and RNA was isolated. E-selectin expression was analyzed by Northern blotting. […] With increasing oligonucleotide dose, the longer Type III message decreased while a shorter message increased (FIG. 2). This shorter message most likely represents a combination of Type I and II messages, because the Type II message is just 158 bases longer than the Type I message, and the difference in sizes cannot be resolved on the gel which was used.

[10] = system: E-selectin; experiment: E-selectin cell surface protein expression by flow cytometry in HUVEC; format: cell-based, human; details: after addition of TNF-α
Description: as §5
Following oligonucleotide treatment, cells were detached with D-PBS (without calcium and magnesium) supplemented with 4 mM EDTA. Cells were centrifuged at 5,000 rpm for 1 minute and washed in 2% bovine serum albumin (BSA), 0.2% sodium azide in D-PBS at 4° C. E-selectin-phycoerythrin antibody (Ancell) was then added at 1:100 in 0.1 ml of the above buffer, and incubated for 30 min at 4° C. in the dark. Cells were washed again as above and resuspended in 0.3 ml of PBS buffer with 0.5% formaldehyde. Cells were analyzed for E-selectin expression on a FACScan (Becton-Dickinson). Results are expressed as percentage of control expression based upon the mean fluorescence intensity.
The treated cells were stimulated with TNF-α for 2 hours, then analyzed for E-selectin protein expression by flow cytometry. […] Results at the protein level are not as dramatic as at the RNA level due to the fact that the Type III message remains the predominant RNA species present (FIG. 2). Any change in protein stability resulting from the presence of the type I/II message would likely be partially masked by the more abundant Type III RNA.

[11] = system: E-selectin mRNA; experiment: Non-quantitative RT-PCR of E-selectin Type I, II and III transcripts in HUVEC; format: cell-based, human; details: relative to untreated cells, 200 nM stated for ISIS 106344
Description: as §6
To determine if processing could be controlled more specifically, oligonucleotides were also designed to the upstream polyadenylation signals. Non-quantitative RT-PCR was used to distinguish among the three forms of the message. In the absence of oligonucleotide, all three types of transcript were detected. […] This difference may be due to variation in the efficiency of PCR amplification on the varying length products, with the shorter Type I and II messages being more efficiently amplified than the Type III product. […] To determine if the effects of ISIS 106344 were unique, antisense oligonucleotides were designed to the Type I and Type II polyadenylation sites.
To evaluate whether treatment with two oligonucleotides would result in the production of a single species of E-selectin message, HUVEC were treated with ISIS 106344, and either ISIS 135568 or ISIS 135570 (150 nM each). […] Cells were also treated with both ISIS 135568 and ISIS 135570.

[12] = Oligo Concentration 50 (unit not given)
[13] = Oligo Concentration 100 (unit not given)
[14] = Oligo Concentration 400 (unit not given)

## 16758 (antisense eT*e[5mC]*eA*eT*e[5mC]*eA*eT*eT*eT*e[5mC]*e[5mC]*eT*eG*eG*eT*eG*eG*eA*eA*eA) [compound 16758]
[1]; 18 hr
  % of CONTROL, human IL-5 receptorα membrane form mRNA: 176%
[2]; 36 hr
  % INHIB, human IL-5 receptorα protein on the cell surface: 94.5%
  % of CONTROL, human IL-5 receptorα protein on the cell surface: 5.5%
[3]; oligo dose 10 μM
  % Apoptotic cells: 33.1%
[3]; oligo dose 15 μM
  % Apoptotic cells: 40.1%
[3]; oligo dose 20 μM
  % Apoptotic cells: 50.4%
[4]; oligo dose 10 μM
  % of control thymidine incorporation: 42.8%
[4]; oligo dose 15 μM
  % of control thymidine incorporation: 39.2%
[4]; oligo dose 20 μM
  % of control thymidine incorporation: 19.9%

## 18011 (eT*e[5mC]*eA*eG*e[5mC]*eA*eG*eT*eT*eA*e[5mC]*eT*eT*eG*eT*eG*eT*eA*eA*eA) [compound 18011]
[3]; oligo dose 10 μM
  % Apoptotic cells: 19%
[3]; oligo dose 15 μM
  % Apoptotic cells: 23.6%
[3]; oligo dose 20 μM
  % Apoptotic cells: 21.8%
[4]; oligo dose 10 μM
  % of control thymidine incorporation: 95.6%
[4]; oligo dose 15 μM
  % of control thymidine incorporation: 97.9%
[4]; oligo dose 20 μM
  % of control thymidine incorporation: 84.6%

## 22783 (e[5mC]*eT*eG*eG*eA*eT*e[5mC]*e[5mC]*eA*eA*eG*eG*e[5mC]*eT*e[5mC]*eT*eA*eG*eG*eT) [compound 22783]
[5]
  % CONTROL bcl-xs: 247%
[6]
  % CONTROL bcl-xl: 47%
[7]; A549 cells
  bcl-xs/bcl-xl: 5.25
[7]; A549 cells, no oligo 17.56
  bcl-xs/bcl-xl (%): 293.1%
[7]
  ratio of bcl-xs/bcl-xl: 7
[8]; [12]
  ratio of bcl-xs/bcl-xl: 3
[8]; [13]
  ratio of bcl-xs/bcl-xl: 2
[8]; [14]
  ratio of bcl-xs/bcl-xl: 24
[8]; Oligo Concentration 600 (unit not given)
  ratio of bcl-xs/bcl-xl: 28

## 26066 (ATCCAAGGCTCTAGGTGGTC; all 2'-MOE, all phosphorothioate, methylation of C not given here) [compound 26066]
[5]
  % CONTROL bcl-xs: 400%
[6]
  % CONTROL bcl-xl: 26%
[7]; A549 cells
  bcl-xs/bcl-xl: 15.38
[7]
  ratio of bcl-xs/bcl-xl: 24
[8]; [12]
  ratio of bcl-xs/bcl-xl: 6
[8]; [13]
  ratio of bcl-xs/bcl-xl: 11
[8]; [14]
  ratio of bcl-xs/bcl-xl: 25

## ISIS 16758: TCATCATTTCCTGGTGGAAA, SEQ ID 35; I11/E12; uniform 2′-MOE (antisense eT*e[5mC]*eA*eT*e[5mC]*eA*eT*eT*eT*e[5mC]*e[5mC]*eT*eG*eG*eT*eG*eG*eA*eA*eA)
[1]
  effect on IL-5 receptorα mRNA levels: without reducing mRNA levels
[2]; 36 hr
  % INHIB, human IL-5 receptorα protein on the cell surface: over 50%
[2]; TF-1 cells, read-out: IC50 for reduction of IL-5 receptorα cell surface protein
  IC50: ~5 µM
[4]; TF-1 cells
  cell proliferation in response to IL-5 (summary): greatly reduces cellular response to IL-5

## ISIS 106345: AGAAAGAGACTTAACACAGA, SEQ ID 67; uniformly 2′-MOE phosphorothioate; E-selectin Type III poly(A) site (all 2'-MOE, all phosphorothioate, methylation of C not given here)
[9]
  longer Type III E-selectin message (Northern blot): decreased
  shorter E-selectin message (Type I and II) (Northern blot): increased

## ISIS 106346: CATCAGAACTTATATAGTCA, SEQ ID 68; 106344 mismatch control (all 2'-MOE, all phosphorothioate, methylation of C not given here) [reference compound]
[10]
  time of maximal E-selectin protein expression: four hours after addition of TNF-α

## ISIS 135568: GCTTTTATTAGTTCAAAACGTTTGG, SEQ ID 70; E-selectin Type II poly(A) signal (all 2'-MOE, all phosphorothioate, methylation of C not given here)
[11]
  Type I E-selectin message (RT-PCR): corresponding increases
  Type II E-selectin message (RT-PCR): sharp decrease
  Type III E-selectin message (RT-PCR): corresponding increases

## ISIS 135570: CAGAACTTTATTCTGGTTAACATCATG, SEQ ID 71; E-selectin Type I poly(A) signal (all 2'-MOE, all phosphorothioate, methylation of C not given here)
[11]
  Type I E-selectin message (RT-PCR): greatly reduced
  Type II E-selectin message (RT-PCR): increased
  Type III E-selectin message (RT-PCR): increased
